Legend:
human GST-CLK1 = target: T1, human GST-CLK1 (Homo sapiens, UniProt P49759); experiment: GST-CLK1 enzyme inhibition, ADP-Glo kinase assay; assay type: biochemical; conditions: ATP 10 μM, GST-CLK1 129-end
T1 construct: purified human GST-CLK1 (129-end, SignalChem) enzyme; purchased SignalChem
In short: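 ADP-Glo luminescence read-out, relative to untreated solvent control, gave IC50 (nM) from triplicate data sets. Reactions ran an hour at 25° C with 3 ng GST-CLK1 (residues 129-end), 10 μM ATP and specific substrate in Tris-HCl pH 7.4 buffer with MgCl2, BSA and DTT.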

TNF-α = experiment: Inhibition of LPS-induced TNF-α secretion of THP-1 monocytes (ELISA); assay type: cell-based, human; conditions: Homo sapiens, THP-1; compound 0.5 μM, LPS 500 ng/mL, 24 hours; read-out: THP-1/TNF-α (% inhib)
Procedure: To evaluate an inhibitory effect on cytokine secretion of monocytes, THP-1 cells (ATCC, #TIB-202) as a human-derived monocyte line were cultured in an RPMI-1640 (Hyclone, SH30027.01) medium supplemented with 10% fetal bovine serum (Hyclone, SH30084.03), 1% penicillin streptomycin (Welgene, LS202-02), and 50 μM 2-mercaptoethanol (Gibco, #21985023). In the test, the cells were seeded in a 48-well plate (SPL, #30048) at a density of 1.5 to 2×10^5 cells/250 μL per well, and cultured at 37° C. for 16 hours in a 5% CO2 incubator. Thereafter, the compound was diluted with DMSO so that the final concentration of the compound was 0.5 μM. Then, the cells were treated with the diluted compound before an hour of treatment with lipopolysaccharides (LPS) (Sigma, #L6529). After the treatment with the compound, the cells were treated with LPS so that the final concentration was 500 ng/mL. Then, a cell culture broth was collected after 24 hours of culture, and levels of cytokine IL-6 (R&D Systems, #D6050) and TNF-α (R&D Systems, #DTA00D) comprised in the culture broth were measured using respective ELISA kits. After an experiment was performed according to the manufacturer's guidelines, cell analysis was performed by measuring the optical density at 450 nm using a microplate reader.

human DYRK1A and tau = experiment: Inhibition of tau phosphorylation, ClariCELL Kinase Cell-Based Assay, HEK 293 cells expressing human DYRK1A and tau; conditions: for inhibition at 1 µM: HEK293, read-out: % inhibition at 1 uM, tau phosphorylation, compound 1 uM; for inhibition at 0.25 µM / inhibition at 0.5 µM: HEK293, tau phosphorylation; for inhibition at 0.25 µM: compound 0.25 uM; for inhibition at 0.5 µM: compound 0.5 uM
In short: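 Cell-based service assay: HEK 293 cells transiently expressing human DYRK1A and tau were treated with compound and lysed. Released tau was plate-captured and its phosphorylation quantified by ELISA with a phospho-tau-specific antibody.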

MDA-MB-231 cell line = experiment: Inhibition of proliferation of MDA-MB-231 cancer cells (Cell Titer-Glo); assay type: cell-based; conditions: Homo sapiens, 72 hours
In short: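 Luminescence from Cell Titer-Glo (10 min, room temperature) gave GI50 after 72 h compound treatment. Final compound levels spanned 0.000169–10.000000 μM over 11 points, 3-fold steps; 2,000 cells/well grown in DMEM or RPMI.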

T1 sequence (P49759 129-484 limits assumed): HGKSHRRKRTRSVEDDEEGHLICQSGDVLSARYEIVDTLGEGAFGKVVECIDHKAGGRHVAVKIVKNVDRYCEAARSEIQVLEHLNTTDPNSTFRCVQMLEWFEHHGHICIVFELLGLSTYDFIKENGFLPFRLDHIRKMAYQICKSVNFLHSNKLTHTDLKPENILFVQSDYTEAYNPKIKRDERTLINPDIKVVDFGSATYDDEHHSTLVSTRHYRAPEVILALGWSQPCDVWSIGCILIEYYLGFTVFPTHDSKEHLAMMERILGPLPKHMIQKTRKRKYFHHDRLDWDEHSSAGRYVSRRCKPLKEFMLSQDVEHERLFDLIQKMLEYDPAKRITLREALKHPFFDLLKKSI

IC50 (human GST-CLK1) [nM]	GI50 (MDA-MB-231 cell line) [nM]	SMILES	inhibition at 0.5 µM (TNF-α) [%]	inhibition at 1 µM (human DYRK1A and tau) [%]	inhibition at 0.25 µM (human DYRK1A and tau) [%]	inhibition at 0.5 µM (human DYRK1A and tau) [%]
< 100	–	CNc1nc(Nc2ccc(C(=O)N3CCN(C4COC4)CC3)c3c2OCCO3)nc2[nH]cc(C(F)(F)F)c12 [Example 397, (8-((4-(methylamino)-5-(trifluoromethyl)-7H-pyrrolo[2,3-d]pyrimidin-2-yl)amino)-2,3-dihydrobenzo[b] [1,4]dioxin-5-yl) (4-(oxetan-3-yl)piperazin-1-yl)methanone]	5.6	52.8	12.9	41.1
< 100	–	CCNc1nc(Nc2ccc(C(=O)N3CCC(N4CCOCC4)CC3)c3c2OCC3)nc2[nH]cc(C(F)(F)F)c12 [Example 438, (7-((4-(ethylamino)-5-(trifluoromethyl)-7H-pyrrolo[2,3-d]pyrimidin-2-yl)amino)-2,3-dihydrobenzo-furan-4-yl)(4-morpho-linopiperidin-1-yl)methanone]	10.8	86.8	46.3	69.7
< 100	–	COCCNc1nc(Nc2ccc(P3(=O)CCN(C4CCOCC4)CC3)cc2OC)nc2[nH]cc(C(F)(F)F)c12 [Example 444, 4-(3-methoxy-4-((4-((2-methoxyethyl)amino)-5-(trifluoromethyl)-7H-pyrrolo[2,3-d]pyrimidin-2-yl)amino)phenyl)-1-(tetrahydro-2H-pyran-4-yl)-1,4-azaphosphinane 4-oxide]	14.4	65.6	21.7	45.7
< 100	–	CCNc1nc(Nc2ccc(C(=O)N3CCC(N4CCOCC4)CC3)c3c2OCC3)nc2[nH]cc(C#N)c12 [Example 347, 4-(ethylamino)-2-((4-(4-morpholino-piperidine-1-carbonyl)-2,3-dihydro-benzofuran-7-yl)amino)-7H-pyrrolo[2,3-d]pyrimidine-5-carbonitrile]	13.3	51.5	24.7	42.6
< 100	–	CNc1nc(Nc2ccc(C(=O)N3CC[C@H](N4CCOCC4)C3)c3c2OCC3)nc2[nH]cc(C(F)(F)F)c12 [Example 236, (S)-(7-((4-(methylamino)-5-(trifluoromethyl)-7H-pyrrolo[2,3-d]pyrimidin-2-yl)amino)-2,3-dihydrobenzofuran-4-yl)(3-morpholinopyrrolidin-1-yl)methanone]	13.6	67	34.1	59.5
< 100	–	CCNc1nc(Nc2ccc(C(=O)N3CCN(C4COC4)CC3)c3c2OCCO3)nc2[nH]cc(C(F)(F)F)c12 [Example 400, (8-((4-(ethylamino)-5-(trifluoromethyl)-7H-pyrrolo[2,3-d]pyrimidin-2-yl)amino)-2,3-dihydrobenzo[b] [1,4]dioxin-5-yl) (4-(oxetan-3-yl)piperazin-1-yl)methanone]	1	69.4	22.3	46.5
< 100	–	CCCNc1nc(Nc2ccc(C(=O)N3CCC(N4CCOCC4)CC3)c3c2OCC3)nc2[nH]cc(C(F)(F)F)c12 [Example 446, (4-morpholino-piperidin-1-yl)(7-((4-(propylamino)-5-(trifluoromethyl)-7H-pyrrolo[2,3-d]pyrimidin-2-yl)amino)-2,3-dihydrobenzo-furan-4-yl)methanone]	22.5	84.9	25.7	61.1
< 100	–	O=C(c1ccc(Nc2nc(NC3CC3)c3c(C(F)(F)F)c[nH]c3n2)c2c1CCO2)N1CCC(N2CCOCC2)CC1 [Example 434, (7-((4-(cyclopropyl-amino)5-(trifluoromethyl)-7H-pyrrolo[2,3-d]pyrimidin-2-yl)amino)-2,3-dihydrobenzo-furan-4-yl)(4-morpho-linopiperidin-1-yl)methanone]	16	87.3	47.4	65.2
< 100	–	COCCNc1nc(Nc2ccc(C(=O)N3CCC(N4CCOCC4)CC3)c3c2OCC3)nc2[nH]cc(C(F)(F)F)c12 [Example 443, (7-((4-((2-methoxyethyl)amino)-5-(trifluoromethyl)-7H-pyrrolo[2,3-d]pyrimidin-2-yl)amino)-2,3-dihydrobenzo-furan-4-yl)(4-morpho-linopiperidin-1-yl)methanone]	10.8	–	–	–
< 100	–	COCCNc1nc(Nc2ccc(C(=O)N3CCN(C4COC4)CC3)c3c2OCCO3)nc2[nH]cc(C(F)(F)F)c12 [Example 403, (8-((4-((2-methoxyethyl)-amino)-5-(trifluoromethyl)-7H-pyrrolo[2,3-d]pyrimidin-2-yl)amino)-2,3-dihydrobenzo[b] [1,4]dioxin-5-yl) (4-(oxetan-3-yl)piperazin-1-yl)methanone]	40.4	–	–	–
< 100	–	CCNc1nc(Nc2ccc(C(=O)N3CCC(N4C[C@@H]5C[C@H]4CO5)CC3)c3c2OCC3)nc2[nH]cc(C(F)(F)F)c12 [Example 468]	16.5	92.5	50.3	75.4
< 100	–	COc1cc(P2(=O)CCN(C3CCOCC3)CC2)ccc1Nc1nc(NC2CC2)c2c(C(F)(F)F)c[nH]c2n1 [Example 435, 4-(4-((4-(cyclo-propylamino)-5-(trifluoromethyl)-7H-pyrrolo[2,3-d]pyrimidin-2-yl)amino)-3-methoxyphenyl)-1-(tetrahydro-2H-pyran-4-yl)-1,4-azaphosphinane 4-oxide]	6.6	73.4	22.7	55.5
< 100	–	O=C(c1ccc(Nc2nc(NC3CCC3)c3c(C(F)(F)F)c[nH]c3n2)c2c1OCCO2)N1CCN(C2COC2)CC1 [Example 407, (8-((4-(cyclo-butylamino)-5-(trifluoromethyl)-7H-pyrrolo[2,3-d]pyrimidin-2-yl)amino)-2,3-dihydrobenzo[b] [1,4]dioxin-5-yl) (4-(oxetan-3-yl)piperazin-1-yl)methanone]	5.3	58.6	20.7	39.4
< 100	–	CCNc1nc(Nc2ccc(C(=O)N3CC[C@H](N4CCOCC4)C3)c3c2OCC3)nc2[nH]cc(C(F)(F)F)c12 [Example 475, (S)-(7-((4-(ethylamino)-5-(trifluoromethyl)-7H-pyrrolo[2,3-d]pyrimidin-2-yl)amino)-2,3-dihydrobenzo-furan-4-yl)(3-morpholino-pyrrolidin-1-yl)methanone]	4.7	86.8	42.6	65.3
101 to 300	301 to 1000	CCNc1nc(Nc2cc(F)c(S(=O)(=O)N3CCC(N4CCOCC4)CC3)cc2OC)nc2[nH]cc(C(F)(F)F)c12 [Example 232, N^4-ethyl-N^2-(5-fluoro-2-methoxy-4-((4-morpholinopiperidin-1-yl)sulfonyl)phenyl)-5-(trifluoromethyl)-7H-pyrrolo[2,3-d]pyrimidine-2,4-diamine]	–	–	–	–
